Results as given in patent publication US11426346B2, “Lutein-containing ophthalmic composition” (Taipei Medical University, priority 2019, dated 2022).

Columns and labels:
Format in all cases: cell-based, human
TNF-α = test: Gene expression of inflammatory cytokine TNF-α in LPS-induced HCE-2 cells (Real-Time PCR); conditions: 500 ng/mL LPS 6 hours, then 2 hours treatment, compared with LPS group, FIG. 3C
Description: (§1) 3×10^5 (cell/ml) human corneal epithelial cells (HCE-2) were cultured in a 6-well plate and cultured overnight in an incubator for cell attachment, followed 500 ng/mL lipopolysaccharides (LPS) was added in culture medium for co-cultured with cells for 6 hours to induce cell inflammation. After 6 hours, the medium containing lipopolysaccharide (LPS) was removed, and the medium with the lutein, PVA was added to a 6-well plate. After 2 hours of treatment, the gene expressions of cellular inflammatory cytokines (IL-1β, IL-6, TNF-α) were detected by real-time polymerase chain reaction (Real-Time PCR). […]

IL-1β = test: Gene expression of inflammatory cytokine IL-1β in LPS-induced HCE-2 cells (Real-Time PCR); conditions: 500 ng/mL LPS 6 hours, then 2 hours treatment, compared with LPS group, FIG. 3A
Description: as §1

IL-6 = test: Gene expression of inflammatory cytokine IL-6 in LPS-induced HCE-2 cells (Real-Time PCR); conditions: 500 ng/mL LPS 6 hours, then 2 hours treatment, compared with LPS group, FIG. 3B
Description: as §1

CC1=C[C@H](O)CC(C)(C)[C@H]1/C=C/C(C)=C/C=C/C(C)=C/C=C/C=C(C)/C=C/C=C(C)/C=C/C1=C(C)C[C@@H](O)CC1(C)C [lutein (L), lutein]
inhibit the expression: gene expression of TNF-α (TNF-α) | gene expression of IL-1β (IL-1β) | gene expression of IL-6 (IL-6)
